Test results as given in publication PMC10825133, “Repurposing proteasome inhibitors for improved treatment of triple-negative breast cancer” (Cell Death Discovery, 2024).
Where two headings read alike, the source gives them in different places.

Assays:
MCF-10A cells = experiment: Resazurin-based cell viability assay, monotherapy drug screen; set-up: species or system human; AUC: scale not given here; details: for AUC: area under the dose response curve; for GRmax: drug efficacy at highest tested dose (<0 cytotoxic, 0 cytostatic, >0 partial growth inhibition)
Method in brief: (§1)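 Cells were seeded at the highest density (tested 1000-16000 cells/well) giving linear growth between days 1 and 3, keeping them in exponential phase over the ~52 h experiment. Viability was read after 4 h at 37 °C with 0.2 mg/ml resazurin added at 10% of medium volume; ex 560/em 615 nm.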

MDA-MB-453 cells = experiment: as above; set-up: species or system human; AUC: scale not given here; details: for AUC: area under the dose response curve, 24 h; for GRmax: drug efficacy at highest tested dose (<0 cytotoxic, 0 cytostatic, >0 partial growth inhibition)
Method in brief: as §1

HCC38 cells = experiment: Combination therapy, resazurin viability, SynergyFinder; type: cell-based, human
Protocol: (§2) Eighteen pharmaceutical compounds were purchased from Selleckchem (Supplementary Table 2). Stock solutions were prepared using dimethyl sulfoxide (DMSO; Merck), physiological saline (sodium chloride 0.9%) or Milli-Q water, and stored at −80 °C. […] Matched concentration solvent vehicle controls were used for each drug concentration. The drug screens were performed in triplicate and repeated three (monotherapy) or two (combination therapy) times (Fig. 7).
(§3) The optimal seeding density per 96-well was determined for each cell line as previously described. The cells were seeded at a density of 4.0 × 10^3 to 7.5 × 10^3 (cell type dependent) in 96-well clear, flat-bottom microplates (Corning Life Sciences, Sigma-Aldrich) in 100 µl complete culture medium (Supplementary Table 1) and cultured for 24 h. Cell viability was determined using the resazurin assay in untreated cells at the time of plating (t = 0) and treated cells after 24 h drug treatment (Fig. 7). Percentage cell viability was calculated as 100% × (absorbance of treated cells – absorbance of background controls) / (absorbance of matched solvent vehicle controls – absorbance of background controls). The area under the curve (AUC), half-maximal inhibitory concentration (IC50), drug potency (GR50), and drug efficacy (GRmax) were determined for each compound using the GRmetrics (version 1.20.0) package in R. The monotherapy data were evaluated with the IDACombo (version 1.0.2) package in R to predict potential drug combinations (Table 1). SynergyFinder (version 3.2.10) package in R was used to identify synergistic drug combinations.
(§4) Eighteen pharmaceutical compounds were purchased from Selleckchem. […] The solubility of the compound was enhanced by pre-heating the solvent (lukewarm), if necessary. […] The stock solutions were stored at -80°C. […] Matched concentration solvent vehicle controls were used for each drug concentration. The drug screens were performed in triplicate and repeated three times for the monotherapies and twice for the combination treatments. The drug(s) and corresponding controls were plated in 96-well PCR plates (VWR) and stored at -20°C (Fig. 6). The drug plates were thawed, centrifuged (3000 rpm for 30s), and acclimatized to RT before the drugs were added to the cells. New drug plates were prepared for each drug screen.
(§5) The cells were seeded at a density of 4.0x10^3 to 7.5x10^3 (cell type-dependent) in 96-well clear, flat-bottom microplates (Corning Life Sciences, Sigma-Aldrich) in 100 µl culture medium supplemented with 10% FBS and cultured for 24h. Cell viability was determined using the resazurin assay after 24h drug treatment (Fig. 6). Percentage cell viability was calculated as 100% × (absorbance of treated cells – absorbance of background controls) / (absorbance of matched solvent vehicle controls – absorbance of background controls). Normalized growth rate inhibition (GR) was assessed using the absorbance of untreated cells after the time of plating (t = 0). […] For combination treatment, the monotherapy data were evaluated with the IDACombo (version 1.0.2)[20] package in R to predict potential drug combinations (Table 1). SynergyFinder (version 3.2.10)[21] package in R was used to identify synergistic drug combinations.

[1] = system: eight TNBC cell lines and two controls (MCF-10A and MCF-7); experiment: Monotherapy drug screen, all investigated cell lines; type: cell-based, human; details: for drug potency classification, below the threshold: GR50 and AUC both below the threshold; for drug potency classification: metrics GR50 < 1.0 µM and AUC < 0.80
Protocol: as §2, §3, §4, §5

[2] = system: control cell lines (MCF-10A and MCF-7); experiment: Monotherapy drug screen, mean across the controls; type: cell-based, human
Protocol: as §2, §3, §4, §5

[3] = 24 h drug treatment, read-out: IC50
[4] = growth rate inhibition concentration at GR(c) = 0.5, 24 h, read-out: GR50 (the source's name)
[5] = Homo sapiens, 24 h drug treatment, read-out: IC50
[6] = Homo sapiens, growth rate inhibition concentration at GR(c) = 0.5, 24 h, read-out: GR50 (the source's name)
[7] = Homo sapiens, MDA-MB-453, growth rate inhibition concentration at GR(c) = 0.5, 24 h, read-out: GR50 (the source's name)
[8] = Homo sapiens, MDA-MB-453, 24 h drug treatment, read-out: IC50

With `N.N.O=C([O-])C1(C(=O)[O-])CCC1.[Pt+2]` [Carboplatin] the IC50 (MCF-10A cells; [3]) was 0.73 µM, the AUC (MCF-10A cells; 24 h) was 0.90 and the GRmax (MCF-10A cells) was 0.19. It also gave an IC50 (MCF-10A cells; [4]) of 0.76 µM, an AUC (MDA-MB-453 cells; MDA-MB-453) of 0.98 and a GRmax (MDA-MB-453 cells; MDA-MB-453) of 0.79. The “Inhibition (%)” value (HCC38 cells; carboplatin 8 µM alone) was −3.64%, the “Inhibition (%)” value (HCC38 cells; carboplatin 32 µM alone) was −1.55% and the “Inhibition (%)” value (HCC38 cells; carboplatin 128 µM alone) was 0.55%. For the same molecule, the “Inhibition (%)” value (HCC38 cells; carboplatin 512 µM alone) was 11.55%.

With `CC(C)C[C@H](NC(=O)[C@H](CCc1ccccc1)NC(=O)CN1CCOCC1)C(=O)N[C@@H](Cc1ccccc1)C(=O)N[C@@H](CC(C)C)C(=O)[C@@]1(C)CO1` [Carfilzomib] the IC50 (MCF-10A cells; [5]) was 0.54 µM, the IC50 (MCF-10A cells; [6]) was 0.11 µM and the AUC (MCF-10A cells; 24 h) was 0.66. The IC50 (MDA-MB-453 cells; [7]) was 0.22 µM, the AUC (MDA-MB-453 cells; MDA-MB-453) was 0.77 and the “drug potency classification, below the threshold” value [1] was “highly potent drugs”. For the same molecule, the drug potency classification [1] was “potent drugs”.

With `CC1=C(O)C(=O)C=C2C1=CC=C1[C@@]2(C)CC[C@@]2(C)[C@@H]3C[C@](C)(C(=O)O)CC[C@]3(C)CC[C@]12C` [Celastrol] the IC50 (MCF-10A cells; Homo sapiens, 24 h) was 1.6 µM, the IC50 (MCF-10A cells; Homo sapiens, 24 h, read-out: GR50 (µM)) was 1.8 µM and the AUC (MCF-10A cells; 24 h) was 0.81. For the same molecule, the IC50 (MDA-MB-453 cells; Homo sapiens, MDA-MB-453, 24 h) was 3.7 µM, the IC50 (MDA-MB-453 cells; Homo sapiens, MDA-MB-453, 24 h, read-out: GR50 (µM)) was 3.4 µM and the AUC (MDA-MB-453 cells; MDA-MB-453) was 0.87.

With `N.N.[Cl][Pt][Cl]` [Cisplatin] the IC50 (MCF-10A cells; [3]) was 0.027 µM, the AUC (MCF-10A cells; 24 h) was 0.42 and the GRmax (MCF-10A cells) was −0.32. For the same molecule, the IC50 (MCF-10A cells; [4]) was 0.028 µM, the IC50 (MDA-MB-453 cells; MDA-MB-453, 24 h drug treatment, read-out: IC50) was 0.24 µM and the AUC (MDA-MB-453 cells; MDA-MB-453) was 0.75. For the same molecule, the GRmax (MDA-MB-453 cells; MDA-MB-453) was 0.25, the IC50 (MDA-MB-453 cells; MDA-MB-453, growth rate inhibition concentration at GR(c) = 0.5, 24 h, read-out: GR50 (the source's name)) was 0.095 µM and the drug potency classification [1] was “potent drugs”. For the same molecule, the “area under the dose response curve (AUC), mean ± SD” value ([2]; 24 h) was 0.54 ± 0.12.

`CC(=O)O[C@@]12CO[C@@H]1C[C@H](O)[C@@]1(C)C(=O)[C@H](O)C3=C(C)[C@@H](OC(=O)[C@H](O)[C@@H](NC(=O)OC(C)(C)C)c4ccccc4)C[C@@](O)([C@@H](OC(=O)c4ccccc4)[C@H]21)C3(C)C` [Docetaxel] gave an IC50 (MCF-10A cells; [5]) of 0.05 µM, an IC50 (MCF-10A cells; [6]) of 0.009 µM and an AUC (MCF-10A cells; 24 h) of 0.63. For the same molecule, the AUC (MDA-MB-453 cells; MDA-MB-453) was 0.87, the “drug potency classification, below the threshold” value [1] was “highly potent drugs” and the drug potency classification [1] was “potent drugs”. It also gave an IC50 ([2]; Homo sapiens, 24 h drug treatment, read-out: GR50 (mean ± SD)) of 7.8 ± 1.3 nM.

`COc1cccc2c1C(=O)c1c(O)c3c(c(O)c1C2=O)C[C@@](O)(C(=O)CO)C[C@@H]3O[C@H]1C[C@H](N)[C@H](O)[C@H](C)O1` [Doxorubicin] was tested, and the IC50 (MCF-10A cells; [5]) was 0.99 µM, the IC50 (MCF-10A cells; [6]) was 0.98 µM and the AUC (MCF-10A cells; 24 h) was 0.72. For the same molecule, the IC50 (MDA-MB-453 cells; [8]) was 8.1 µM, the IC50 (MDA-MB-453 cells; [7]) was 4.6 µM and the AUC (MDA-MB-453 cells; MDA-MB-453) was 0.88.

For `COc1cccc2c1C(=O)c1c(O)c3c(c(O)c1C2=O)C[C@@](O)(C(=O)CO)C[C@@H]3O[C@H]1C[C@H](N)[C@@H](O)[C@H](C)O1` [Epirubicin], the IC50 (MCF-10A cells; [5]) was 0.69 µM, the IC50 (MCF-10A cells; [6]) was 0.69 µM and the AUC (MCF-10A cells; 24 h) was 0.69. It also gave an IC50 (MDA-MB-453 cells; [8]) of 5.3 µM, an IC50 (MDA-MB-453 cells; [7]) of 3.2 µM and an AUC (MDA-MB-453 cells; MDA-MB-453) of 0.90.
